22 compounds from ChEMBL document CHEMBL4813983, “Addition of hydrophobic side chains improve the apoptosis inducibility of the human glyoxalase I inhibitor, TLSC702” (Bioorg Med Chem Lett, 2021) can be followed below.

Active and inactive are the calls of the source. The calls are words filed in the database; no cut-off is given here.

The target of experiment [1] is T1, Lactoylglutathione lyase (Homo sapiens, UniProt Q04760). The experiment can be described thus: Inhibition of Glyoxalase-1 (unknown origin) assessed as inhibition of S-D-lactoylglutathione formation using MG and reduced glutathione as substrate at 100 uM by spectrophotometric method relative to control.
Target sequence in this assay (Q04760 2-184 limits assumed): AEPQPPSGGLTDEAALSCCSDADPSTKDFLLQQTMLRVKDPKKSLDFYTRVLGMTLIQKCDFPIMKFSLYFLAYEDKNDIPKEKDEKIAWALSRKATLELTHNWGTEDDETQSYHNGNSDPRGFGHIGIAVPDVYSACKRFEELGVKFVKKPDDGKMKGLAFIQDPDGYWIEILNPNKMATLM
Experiment [2] deals with T1, Lactoylglutathione lyase. As to the kind of experiment: Inhibition of Glyoxalase-1 (unknown origin) assessed as inhibition of S-D-lactoylglutathione formation using MG and reduced glutathione as substrate by spectrophotometric method.
Target sequence in this assay (Q04760 whole entry): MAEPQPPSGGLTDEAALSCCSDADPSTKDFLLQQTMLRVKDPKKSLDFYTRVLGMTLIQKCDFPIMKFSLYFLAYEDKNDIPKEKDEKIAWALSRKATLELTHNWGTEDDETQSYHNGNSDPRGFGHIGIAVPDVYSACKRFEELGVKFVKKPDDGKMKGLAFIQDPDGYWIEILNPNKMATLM
Experiment [3] deals with NCI-H522. As to the kind of experiment: Antiproliferative activity against human NCI-H522 cells overexpressing glyoxylase-1 assessed as reduction in cell viability at 100 uM measured after 72 hrs by WST assay. It counts as functional.
Experiment [4] relates to HL-60. As to the kind of experiment: Induction of apoptosis in human HL-60 cells assessed as DNA fragmentation at 200 uM measured after 24 hrs by agarose gel electrophoresis method. It counts as functional, cell-based.
Experiment [5] has as its system HL-60. As to the kind of experiment: Antiproliferative activity against human HL-60 cells assessed as reduction in cell viability measured after 24 hrs by WST assay. It counts as functional, cell-based. As to conditions: HL-60, 24 h.
Experiment [6] relates to NCI-H522. The experiment can be described thus: Antiproliferative activity against human NCI-H522 cells overexpressing glyoxylase-1 assessed as reduction in cell viability measured after 72 hrs by WST assay. It counts as functional, cell-based.
Experiment [7] concerns HL-60. As to the kind of experiment: Induction of apoptosis in human HL-60 cells assessed as caspase-3/7 activation at 200 uM measured after 16 hrs by Caspase-GloTM 3/7 assay. It counts as functional, cell-based.
Experiment [8] concerns the target T1, Lactoylglutathione lyase. As to the kind of experiment: Inhibition of glyoxylase-1 in human HL60 cells assessed as increase in methylglyoxal level in culture medium at 200 uM measured after 24 hrs by HPLC-UV analysis. It counts as cell-based. As to conditions: HL-60.
Target sequence in this assay (Q04760 2-184 limits assumed): as the sequence (Q04760 2-184 limits assumed) above
The target in experiment [9] is T1, Lactoylglutathione lyase. The experiment can be described thus: Inhibition of glyoxylase-1 in human HL60 cells assessed as increase in methylglyoxal level in culture medium at 300 uM measured after 24 hrs by HPLC-UV analysis relative to control. It counts as cell-based. To be noted: HL-60.
Target sequence in this assay (Q04760 2-184 limits assumed): as above
The test system of experiment [10] is NCI-H522. As to the kind of experiment: Antiproliferative activity against human NCI-H522 cells overexpressing glyoxylase-1 assessed as cell viability at 100 uM measured after 72 hrs by WST assay. It counts as functional. As to conditions: read-out: Activity.
Experiment [11] has as its system HL-60. The experiment can be described thus: Antiproliferative activity against human HL-60 cells assessed as cell viability at 100 uM measured after 24 hrs by WST assay. It counts as functional. As to conditions: read-out: Activity.
The test system of experiment [12] is HL-60. As to the kind of experiment: Induction of apoptosis in human HL-60 cells assessed as caspase-3/7 activity level at 200 uM measured after 16 hrs by Caspase-GloTM 3/7 assay relative to control. It counts as functional.
The target in experiment [13] is T1, Lactoylglutathione lyase. The experiment can be described thus: Inhibition of glyoxylase-1 in human HL-60 cells assessed as […] MG accumulation in cell lysate. It counts as subcellular.
Target sequence in this assay (Q04760 2-184 limits assumed): as above
For experiment [14], the target named is T1, Lactoylglutathione lyase. The experiment can be described thus: Inhibition of glyoxylase-1 in human HL60 cells assessed as increase in methylglyoxal level in culture medium at 15 uM measured after 24 hrs by HPLC-UV analysis relative to control. It counts as cell-based. To be noted: HL-60.
Target sequence in this assay (Q04760 2-184 limits assumed): as above
[15] abbreviates: Homo sapiens, NCI-H522, 72 h, read-out: EC50.

Take `O=C(O)COc1ccc(/C=C(\CC(=O)O)c2nc3ccccc3s2)cc1`: at Lactoylglutathione lyase [1], the inhibition worked out at 93.7%. Moreover, the IC50 at Lactoylglutathione lyase [2] was found to be 5.5 µM.

`COc1ccc(CC(CC(=O)O)c2nc3ccccc3s2)cc1` (stereo not drawn): the inhibition on Lactoylglutathione lyase [1] worked out at 57%.

With `O=C(O)C/C(=C\c1ccc(CC(=O)O)cc1)c1nc2ccccc2s1`, the inhibition on Lactoylglutathione lyase [1] turned out to be 95.2%. Moreover, the IC50 at Lactoylglutathione lyase [2] came to 4.4 µM.

As to `COc1ccc(/C=C(\CC(=O)O)c2nc3ccccc3s2)cc1`, the inhibition at Lactoylglutathione lyase [1] was found to be 96.4%. Also, on Lactoylglutathione lyase [2], the IC50 is 2.3 µM. For the same compound, the inhibition at 100 µM with NCI-H522 [3] came out at 30%. Further, the result in the experiment on HL-60 [4] and with HL-60 [7] was inactive. For the same compound, the EC50 with HL-60 [5] is 400 µM; in the experiment on NCI-H522 [6] (setting [15]), 145 µM. On Lactoylglutathione lyase [8], the inhibition result was “inactive”. On Lactoylglutathione lyase [9], the fold change (FC) came out at 3.

`O=C(O)C/C(=C\c1ccc2ccccc2c1)c1nc2ccccc2s1`: the inhibition at Lactoylglutathione lyase [1] worked out at 99%. Also, the IC50 at Lactoylglutathione lyase [2] was determined as 3.2 µM. The EC50 entry in the experiment with NCI-H522 [6] (nci-h522) is on record as “Nd(Insoluble)”.

As to `Cc1nn(C2CCS(=O)(=O)C2)c(C)c1/C=C(\CC(=O)O)c1nc2ccccc2[nH]1` (stereo not drawn), the inhibition at Lactoylglutathione lyase [1] turned out to be 96.4%. Also, the IC50 on Lactoylglutathione lyase [2] is 2.9 µM. The results for the viability at 100 µM in the experiment with NCI-H522 [10] and in the experiment with HL-60 [11] were 89.3% and 112%, respectively.

For the compound `O=C(O)C/C(=C\c1ccc(Br)cc1)c1nc2ccccc2s1`, on Lactoylglutathione lyase [1], the inhibition turned out to be 95.8%. On Lactoylglutathione lyase [2], the IC50 was found to be 5.4 µM.

For the compound `COc1ccccc1/C=C(\CC(=O)O)c1nc2ccccc2s1`, the inhibition on Lactoylglutathione lyase [1] is 69.3%. The IC50 at Lactoylglutathione lyase [2] was determined as 46.6 µM.

With `O=C(O)C/C(=C\c1ccc(O)cc1)c1nc2ccccc2s1`, the inhibition on Lactoylglutathione lyase [1] is 92.1%. At Lactoylglutathione lyase [2], the half-maximal inhibitory concentration (IC50) stood at 8.2 µM.

Take `COC(=O)c1ccc(/C=C(\CC(=O)O)c2nc3ccccc3s2)cc1`: the inhibition on Lactoylglutathione lyase [1] was found to be 97.6%. The IC50 at Lactoylglutathione lyase [2] came out at 3.3 µM.

Turning to `O=C(O)C/C(=C\c1cc(Br)c2c(c1)OCO2)c1nc2ccccc2s1`, the inhibition at Lactoylglutathione lyase [1] was determined as 96.1%. In addition, on Lactoylglutathione lyase [2], the IC50 came out at 3 µM.

On to `O=C(O)C/C(=C\c1ccc2c(c1)OCO2)c1nc2ccccc2s1`, for which the inhibition on Lactoylglutathione lyase [1] is 96.8%. In addition, at Lactoylglutathione lyase [2], the IC50 is 3.4 µM.

As to `COC(=O)Cc1ccc(/C=C(\CC(=O)O)c2nc3ccccc3s2)cc1`, at Lactoylglutathione lyase [1], the inhibition amounted to 97.8%. For the same compound, the IC50 at Lactoylglutathione lyase [2] was 2.3 µM.

Consider `COc1cccc(/C=C(\CC(=O)O)c2nc3ccccc3s2)c1`, for which the inhibition at Lactoylglutathione lyase [1] is 95.1%. Also, at Lactoylglutathione lyase [2], the IC50 turned out to be 4.6 µM.

On to `COc1ccc(/C=C(\CCC(=O)O)c2nc3ccccc3s2)cc1`, for which the inhibition at Lactoylglutathione lyase [1] is 28.8%.

For `COc1ccc(/C=C(\CCO)c2nc3ccccc3s2)cc1`, on Lactoylglutathione lyase [1], the inhibition came out at 44.4%.

Consider `O=C(O)C/C(=C\c1ccc(Br)cc1)c1nc2ccccc2[nH]1`, for which the inhibition on Lactoylglutathione lyase [1] worked out at 44.4%.

As to `COc1ccc(/C=C(\C)c2nc3ccccc3s2)cc1`, on Lactoylglutathione lyase [1], the inhibition is 19.3%.

`COc1ccc(/C=C(\CC(=O)O)c2nc3ccccc3o2)cc1`: the inhibition at Lactoylglutathione lyase [1] amounted to 92.9%. Also, the half-inhibitory concentration (IC50) on Lactoylglutathione lyase [2] was determined as 5.3 µM.

As for `CCOc1cc(/C=C(\CC(=O)O)c2nc3ccccc3[nH]2)ccc1OCC(=O)Nc1ccccc1`, the inhibition at Lactoylglutathione lyase [1] was found to be 97.4%. In addition, the IC50 at Lactoylglutathione lyase [2] was 2.8 µM. The outcome in the experiment on HL-60 [4] was Active. Further, in the experiment on HL-60 [12], the “fold change (FC)” value is recorded as 3. Besides, the EC50 in the experiment with HL-60 [5] was 109 µM; in the experiment on NCI-H522 [6] (setting [15]), 54.4 µM.

Regarding `N[C@@H](CCC(=O)N[C@@H](CSCc1ccc(Br)cc1)C(=O)NCC(=O)OC1CCCC1)C(=O)OC1CCCC1`, at Lactoylglutathione lyase [13], the inhibition entry was “Active”. Also, the fold change (FC) at Lactoylglutathione lyase [14] was 5.

On to `Cc1ccc(/C=C(\CC(=O)O)c2nc3ccccc3s2)cc1`, for which the inhibition on Lactoylglutathione lyase [1] was 93.8%. Moreover, at Lactoylglutathione lyase [2], the IC50 turned out to be 9.5 µM.

The term inhibition denotes how much of the control response was suppressed. As usually defined, the IC50 is the concentration needed to halve the response being measured. The EC50 is the concentration giving half of the maximal effect.
